According to ChEMBL document CHEMBL1157952, “Neocimicigenosides A and B, cycloartane glycosides from the rhizomes of Cimicifuga racemosa and their effects on CRF-stimulated ACTH secretion from AtT-20 cells” (2006):

Tested on: AtT20
Assay: Induction of corticotropin releasing factor-stimulated ACTH secretion in mouse AtT20 cells
Assay type: functional

Row | SMILES | Activity
1 | CC(=O)O[C@H]1[C@H]2C[C@@H](C)[C@H]3[C@](O2)(OC1(C)C)[C@H](O)[C@@]1(C)[C@@H]2CC[C@H]4C(C)(C)[C@@H](O[C@@H]5OC[C@H](O)[C@H](O)[C@H]5O)CC[C@@]45C[C@@]25CC[C@]31C [NEOCIMICIGENOSIDE A] | 7 ng/mL
2 | CC(=O)O[C@H]1[C@H]2C[C@@H](C)[C@H]3[C@](O2)(OC1(C)C)[C@H](O)[C@@]1(C)[C@@H]2CC[C@H]4C(C)(C)[C@@H](O[C@@H]5OC[C@@H](O)[C@H](O)[C@H]5O)CC[C@@]45C[C@@]25CC[C@]31C [NEOCIMICIGENOSIDE B] | 7.2 ng/mL
